From US8609836B2, “4-aryl-2-anilino-pyrimidines” (Janssen Pharmaceutica NV, priority 2008, dated 2013)

Key:
PLK2 (h) = PLK2 (h) (Homo sapiens, UniProt Q9NYY3); experiment: PLK2 human kinase inhibition, SPA; assay type: biochemical; details: read-out: PLK2 pIC50 (converted)
In short: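 SPA read on Leadseeker: PLK2 (30 μg/ml) with 2 μM biotinylated peptide, 0.1 μM ATP plus 2 nM [γ-33P]ATP in 50 mM Hepes pH 8.0, 2 mM MnCl2, 1 mM DTT. Reaction ran 20 min at room temperature, then EDTA stop and streptavidin PVT beads.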

GSK3β (h) = GSK3β (h) (Homo sapiens, UniProt P49841); experiment: GSK-3β human kinase inhibition, SPA; assay type: biochemical; details: read-out: GSK3b pIC50 (converted)
In short: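 Scintillation proximity assay: GSK3β (1 μg/ml) with 1 μM biotinylated peptide, 1 μM ATP plus [γ-33P]ATP in Tris pH 7.4, MgCl2, DTT. 60 min at room temperature, stopped with EDTA and streptavidin PVT beads; phosphorylation read by Leadseeker imaging.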

H1299 = experiment: Cellular proliferation assay (Alamar blue), H1299; assay type: cell-based; details: Homo sapiens, NCI-H1299; 10% FCS; 72 hours with compound; Alamar blue 4 h
In short: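 This proliferation assay on NCI-H1299 cells used an initial 24-hour compound-free incubation after seeding, followed by 72 hours of compound treatment with 10% FCS serum at 37° C. and 5% (v/v) CO2. Viable cells were quantified by a 4 h Alamar blue incubation and fluorescent plate reading at 544 nm/590 nm, and effects were expressed relative to control cells.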

CDK4/CyclinD1 (h) = CDK4/CyclinD1 (h) (Homo sapiens, UniProt P11802); experiment: CDK4/CyclinD1 human kinase inhibition, SPA with GST-pRb substrate; assay type: biochemical; details: read-out: CDK4 pIC50 (converted)
In short: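 Human CDK4/CyclinD1 (2.5 μg/ml) was incubated with 40 μg/ml GST-pRb and 2 nM [γ-33P]ATP in 50 mM Hepes pH 7.5, 8 mM NaF, 20 mM MgCl2, 1 mM DTT for 60 min at room temperature. EDTA stop with glutathione SPA beads; phosphorylation read by scintillation counting.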

MDA-MB-231 = experiment: Cellular proliferation assay (Alamar blue), MDA-MB-231; assay type: cell-based; details: Homo sapiens, 10% FCS, 72 hours with compound, Alamar blue 24 h, read-out: MDA/MB231 (cellular proliferation assay, Table 4) (converted)
In short: (§1)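 Proliferation in 10% FCS over a 72 h compound treatment, read as viable cell number by Alamar blue fluorescence and calculated against untreated control cells. Dye time varied by line: 6 h U87-MG, 4 h HCT-116, 24 h A2780 and MDA-MB-231.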

AuroraB (h) = AuroraB (h) (Homo sapiens, UniProt Q96GD4); experiment: Aurora-B human kinase inhibition, SPA; assay type: biochemical; details: read-out: AuroraB pIC50 (converted)
In short: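 SPA with biotinylated peptide (3 μM) in 60 mM Hepes pH 7.5, Mg/Mn 3 mM each, 0.5 μM ATP plus [γ-33P]ATP, AuroraB at 0.5 μg/ml. The reaction runs 60 min at room temperature and is stopped with EDTA and streptavidin PVT beads. 33P-substrate is read by scintillation imaging.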

PLK1 T210D (h) = PLK1 T210D (h) (Homo sapiens, UniProt P53350, T210D); experiment: PLK1 human kinase inhibition, SPA; assay type: biochemical; details: read-out: PLK1 pIC50 (converted)
In short: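 Radiometric SPA with PLK1 T210D (0.125 ng/ml) in 50 mM Hepes pH 8.0, 2 mM MnCl2, 1 mM DTT, 2 μM biotinylated peptide, 0.1 μM ATP plus 2 nM [γ-33P]ATP. 40 min at room temperature, EDTA stop. Phosphorylated substrate captured on streptavidin PVT beads, scintillation imaged.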

PLK4 (h) = PLK4 (h) (Homo sapiens, UniProt O00444); experiment: PLK-4 human kinase inhibition, scintillation proximity assay (SPA); assay type: biochemical; details: read-out: PLK4 pIC50 (converted)
HCT-116 = experiment: Cellular proliferation assay (Alamar blue), HCT-116; assay type: cell-based; details: Homo sapiens, 10% FCS, 72 hours with compound, Alamar blue 4 h
In short: as §1

Chain of AuroraB (h) (Q96GD4 whole entry): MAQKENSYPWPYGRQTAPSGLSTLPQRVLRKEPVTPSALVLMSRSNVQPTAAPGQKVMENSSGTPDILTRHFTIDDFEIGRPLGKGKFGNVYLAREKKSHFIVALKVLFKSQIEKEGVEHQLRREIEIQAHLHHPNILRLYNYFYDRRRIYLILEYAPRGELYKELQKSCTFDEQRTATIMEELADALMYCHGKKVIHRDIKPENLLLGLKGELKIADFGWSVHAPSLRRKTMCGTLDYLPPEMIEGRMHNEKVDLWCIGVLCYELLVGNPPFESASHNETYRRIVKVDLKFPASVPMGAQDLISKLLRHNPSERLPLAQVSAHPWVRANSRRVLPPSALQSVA
Chain of CDK4/CyclinD1 (h) (P11802 whole entry): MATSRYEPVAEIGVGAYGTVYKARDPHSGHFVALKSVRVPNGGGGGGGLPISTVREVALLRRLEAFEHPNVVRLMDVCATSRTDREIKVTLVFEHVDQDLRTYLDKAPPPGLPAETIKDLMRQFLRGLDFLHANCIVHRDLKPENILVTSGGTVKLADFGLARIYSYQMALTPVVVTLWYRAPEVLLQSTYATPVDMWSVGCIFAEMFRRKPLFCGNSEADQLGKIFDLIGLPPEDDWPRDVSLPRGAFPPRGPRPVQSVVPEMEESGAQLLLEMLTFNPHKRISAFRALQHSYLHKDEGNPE
Chain of CDK4/CyclinD1 (h) (P24385 whole entry partner): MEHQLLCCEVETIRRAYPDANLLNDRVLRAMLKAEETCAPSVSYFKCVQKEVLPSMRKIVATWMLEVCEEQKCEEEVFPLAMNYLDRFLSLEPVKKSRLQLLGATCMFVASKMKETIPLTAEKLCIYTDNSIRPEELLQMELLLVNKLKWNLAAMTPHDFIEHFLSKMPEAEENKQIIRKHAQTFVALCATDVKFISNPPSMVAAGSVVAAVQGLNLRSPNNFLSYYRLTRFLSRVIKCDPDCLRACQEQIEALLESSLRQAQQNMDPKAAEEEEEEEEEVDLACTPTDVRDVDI
Chain of GSK3β (h) (P49841 whole entry): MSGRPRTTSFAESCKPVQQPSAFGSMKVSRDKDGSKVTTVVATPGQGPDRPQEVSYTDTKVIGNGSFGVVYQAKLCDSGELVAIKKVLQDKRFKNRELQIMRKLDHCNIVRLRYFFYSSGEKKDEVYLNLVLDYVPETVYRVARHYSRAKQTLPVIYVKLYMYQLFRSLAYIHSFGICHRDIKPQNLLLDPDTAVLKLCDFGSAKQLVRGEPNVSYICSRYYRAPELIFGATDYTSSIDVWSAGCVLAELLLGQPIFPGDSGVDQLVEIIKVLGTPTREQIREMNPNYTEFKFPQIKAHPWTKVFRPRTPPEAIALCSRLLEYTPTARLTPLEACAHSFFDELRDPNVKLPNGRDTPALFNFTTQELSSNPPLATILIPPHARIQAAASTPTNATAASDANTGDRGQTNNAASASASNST
Chain of PLK1 T210D (h) (P53350 whole entry T210D): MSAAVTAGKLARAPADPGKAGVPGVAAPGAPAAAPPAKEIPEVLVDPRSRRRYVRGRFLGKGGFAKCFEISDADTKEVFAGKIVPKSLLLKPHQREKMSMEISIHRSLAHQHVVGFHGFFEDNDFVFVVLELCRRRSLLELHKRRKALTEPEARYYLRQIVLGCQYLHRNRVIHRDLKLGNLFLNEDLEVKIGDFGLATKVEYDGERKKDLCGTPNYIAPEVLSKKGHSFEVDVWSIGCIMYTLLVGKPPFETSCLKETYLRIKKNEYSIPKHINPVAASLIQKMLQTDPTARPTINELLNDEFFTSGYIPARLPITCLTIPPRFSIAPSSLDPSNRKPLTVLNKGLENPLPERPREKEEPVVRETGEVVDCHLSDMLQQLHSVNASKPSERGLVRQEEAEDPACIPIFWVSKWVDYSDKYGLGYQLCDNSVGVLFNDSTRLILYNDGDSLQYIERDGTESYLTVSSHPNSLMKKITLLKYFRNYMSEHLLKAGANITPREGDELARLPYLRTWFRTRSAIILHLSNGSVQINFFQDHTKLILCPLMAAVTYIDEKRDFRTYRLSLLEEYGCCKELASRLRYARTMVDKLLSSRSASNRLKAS
Chain of PLK4 (h) (O00444 whole entry): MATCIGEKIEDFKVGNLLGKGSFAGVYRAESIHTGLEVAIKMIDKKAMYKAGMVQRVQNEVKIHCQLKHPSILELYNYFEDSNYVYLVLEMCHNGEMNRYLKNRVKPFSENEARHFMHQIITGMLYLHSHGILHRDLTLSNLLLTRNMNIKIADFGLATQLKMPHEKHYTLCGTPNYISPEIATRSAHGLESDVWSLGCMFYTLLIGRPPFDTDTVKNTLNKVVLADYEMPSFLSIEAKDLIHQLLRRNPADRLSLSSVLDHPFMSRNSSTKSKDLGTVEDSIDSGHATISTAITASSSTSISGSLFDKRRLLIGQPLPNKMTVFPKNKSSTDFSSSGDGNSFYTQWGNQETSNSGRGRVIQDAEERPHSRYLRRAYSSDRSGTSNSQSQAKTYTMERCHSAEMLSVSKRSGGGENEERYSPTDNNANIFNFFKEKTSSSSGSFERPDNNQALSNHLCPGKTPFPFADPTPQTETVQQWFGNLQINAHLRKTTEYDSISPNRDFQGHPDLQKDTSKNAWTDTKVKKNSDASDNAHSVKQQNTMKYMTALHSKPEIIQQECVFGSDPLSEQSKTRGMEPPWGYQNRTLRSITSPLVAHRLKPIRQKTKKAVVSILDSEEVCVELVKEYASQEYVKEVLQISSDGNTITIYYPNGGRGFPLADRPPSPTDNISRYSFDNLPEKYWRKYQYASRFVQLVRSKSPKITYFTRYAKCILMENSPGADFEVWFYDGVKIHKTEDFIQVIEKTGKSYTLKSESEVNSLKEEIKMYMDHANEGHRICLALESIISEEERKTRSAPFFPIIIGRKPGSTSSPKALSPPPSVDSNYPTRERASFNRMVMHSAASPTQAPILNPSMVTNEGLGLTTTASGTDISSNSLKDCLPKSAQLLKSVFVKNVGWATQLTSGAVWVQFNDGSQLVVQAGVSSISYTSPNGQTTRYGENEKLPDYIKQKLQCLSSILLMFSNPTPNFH
Chain of PLK2 (h) (Q9NYY3 whole entry): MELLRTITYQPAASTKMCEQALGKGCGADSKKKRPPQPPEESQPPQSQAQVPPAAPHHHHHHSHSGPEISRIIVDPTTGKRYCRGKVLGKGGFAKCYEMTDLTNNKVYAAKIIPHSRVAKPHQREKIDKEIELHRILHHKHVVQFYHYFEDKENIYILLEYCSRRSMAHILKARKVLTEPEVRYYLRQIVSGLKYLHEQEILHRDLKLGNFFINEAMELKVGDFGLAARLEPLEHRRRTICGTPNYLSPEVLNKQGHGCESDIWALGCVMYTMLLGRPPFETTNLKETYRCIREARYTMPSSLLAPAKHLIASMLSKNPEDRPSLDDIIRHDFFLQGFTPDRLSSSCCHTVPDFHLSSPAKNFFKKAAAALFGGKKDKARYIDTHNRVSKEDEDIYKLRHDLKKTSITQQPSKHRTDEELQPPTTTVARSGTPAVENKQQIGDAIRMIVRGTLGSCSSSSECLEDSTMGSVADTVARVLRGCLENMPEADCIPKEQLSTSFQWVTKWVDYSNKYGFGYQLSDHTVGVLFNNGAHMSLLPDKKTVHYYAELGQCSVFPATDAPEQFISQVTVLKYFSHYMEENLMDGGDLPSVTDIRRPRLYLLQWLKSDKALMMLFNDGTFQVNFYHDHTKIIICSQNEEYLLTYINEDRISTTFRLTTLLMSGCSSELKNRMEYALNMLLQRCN

| Structure (SMILES) | IC50 (PLK2 (h)) [µM] | IC50 (GSK3β (h)) [µM] | IC50 (H1299) [µM] | IC50 (CDK4/CyclinD1 (h)) [µM] | IC50 (MDA-MB-231) [µM] | IC50 (AuroraB (h)) [µM] | IC50 (PLK1 T210D (h)) [µM] | IC50 (PLK4 (h)) [µM] | IC50 (HCT-116) [µM] |
| --- | --- | --- | --- | --- | --- | --- | --- | --- | --- |
| O=C1NCCCc2cc(ccn2)-c2ccnc(n2)Nc2ccc(N3CCOCC3)c(c2)CN2CCCC12 (stereo not drawn) [Compound 48] | > 10 | 9.12 | > 10 | > 10 | > 10 | > 10 | > 10 | 0.661 | > 10 |
| COc1ccc2cc1CN(C)CCCNC(=O)C1CCN(CC1)Cc1cc(cc(NC(C)C)c1)Nc1nccc-2n1 [Compound 70] | > 10 | > 10 | > 10 | > 10 | > 10 | 6.03 | > 10 | 1.58 | > 10 |
| COc1ccc2cc1CN(C)CCNC(=O)C1CCN(CC1)Cc1cc(cc(NC(C)C)c1)Nc1nccc-2n1 [Compound 75] | > 10 | > 10 | > 10 | > 10 | > 10 | > 10 | > 10 | 3.09 | 7.24 |
| COc1ccc2cc1CN(C)CCCNC(=O)C1CCN(CC1)Cc1cc(Br)cc(c1)Nc1nccc-2n1 [Compound 76] | > 10 | > 10 | > 10 | > 10 | 6.76 | 5.5 | > 10 | 3.24 | > 10 |
| COc1ccc2cc1CN(C)CCNC(=O)C1CCN(CC1)Cc1cc(cc(N3CCOCC3)c1)Nc1nccc-2n1 [Compound 77] | > 10 | 3.8 | > 10 | > 10 | > 10 | > 10 | > 10 | 4.79 | > 10 |
| COc1ccc2cc1CN(C)CCCNC(=O)C1CCN(CC1)Cc1cc(cc(N3CCOCC3)c1)Nc1nccc-2n1 [Compound 80] | > 10 | > 10 | > 10 | > 10 | > 10 | > 10 | > 10 | 5.37 | > 10 |
| COc1ccc2cc1CN(C)CCCNC(=O)C1CCN(CC1)Cc1cccc(c1)Nc1nccc-2n1 [Compound 81] | > 10 | > 10 | > 10 | > 10 | > 10 | > 10 | > 10 | 5.5 | > 10 |
| COc1ccc2cc1CN(C)CCNC(=O)C1CCN(CC1)Cc1cccc(c1)Nc1nccc-2n1 [Compound 83] | > 10 | > 10 | > 10 | > 10 | > 10 | > 10 | > 10 | > 10 | > 10 |
| C[C@H]1NCc2cc(ccc2N2CCOCC2)Nc2nccc(n2)-c2ccc(cc2)OCCCNC1=O [Compound 86] | > 10 | 0.0692 | > 10 | 0.49 | > 10 | 10.5 | > 10 | 0.209 | > 10 |

Now from value to compound:

| IC50 (PLK2 (h)) [µM] | IC50 (GSK3β (h)) [µM] | IC50 (H1299) [µM] | IC50 (CDK4/CyclinD1 (h)) [µM] | IC50 (MDA-MB-231) [µM] | IC50 (AuroraB (h)) [µM] | IC50 (PLK1 T210D (h)) [µM] | IC50 (PLK4 (h)) [µM] | IC50 (HCT-116) [µM] | Structure (SMILES) |
| --- | --- | --- | --- | --- | --- | --- | --- | --- | --- |
| > 10 | 2.75 | > 10 | > 10 | > 10 | 6.31 | > 10 | 0.537 | 1.58 | CN1CCNC(=O)C2CCN(CC2)Cc2cc(Br)cc(c2)Nc2nccc(n2)-c2ccc(cc2)C1 [Compound 60] |
| > 10 | 7.59 | > 10 | 7.41 | > 10 | 8.32 | > 10 | 0.724 | 7.94 | CC(C)Nc1cc2cc(c1)Nc1nccc(n1)-c1ccc(cc1)CN(C)CCNC(=O)C1CCN(CC1)C2 [Compound 61] |
| > 10 | 5.89 | > 10 | > 10 | > 10 | > 10 | > 10 | 1.55 | 8.13 | CN1CCNC(=O)C2CCN(CC2)Cc2cc(cc(N3CCOCC3)c2)Nc2nccc(n2)-c2ccc(cc2)C1 [Compound 68] |
| > 10 | > 10 | > 10 | > 10 | > 10 | > 10 | > 10 | 2.34 | 3.39 | CN1CCCNC(=O)C2CCN(CC2)Cc2cc(cc(N3CCOCC3)c2)Nc2nccc(n2)-c2ccc(cc2)C1 [Compound 72] |
| > 10 | > 10 | > 10 | > 10 | 7.59 | > 10 | > 10 | 4.9 | > 10 | CN1CCCNC(=O)C2CCN(CC2)Cc2cccc(c2)Nc2nccc(n2)-c2ccc(cc2)C1 [Compound 78] |
| > 10 | > 10 | > 10 | > 10 | > 10 | > 10 | > 10 | 6.31 | > 10 | CN1CCNC(=O)C2CCN(CC2)Cc2cccc(c2)Nc2nccc(n2)-c2ccc(cc2)C1 [Compound 82] |
| > 10 | 1.55 | > 10 | 7.24 | > 10 | 7.08 | > 10 | 5.37 | > 10 | O=C1NCCNc2cc(ccn2)-c2ccnc(n2)Nc2ccc(N3CCOCC3)c(c2)CN2CCC1CC2 [Compound 84] |
| > 10 | 0.214 | > 10 | 1.26 | 8.13 | > 10 | > 10 | 0.407 | 3.8 | C[C@H]1NCc2cc(ccc2N2CCOCC2)Nc2nccc(n2)-c2cccc(c2)OCCCNC1=O [Compound 87] |
| > 10 | 0.195 | 8.13 | 1.41 | 6.76 | 6.46 | > 10 | 0.447 | 1.62 | C[C@@H]1NCc2cc(ccc2N2CCOCC2)Nc2nccc(n2)-c2cccc(c2)OCCCNC1=O [Compound 88] |
| > 10 | 0.589 | > 10 | 3.63 | > 10 | > 10 | > 10 | 0.525 | 4.37 | O=C1NCCCOc2cccc(c2)-c2ccnc(n2)Nc2ccc(N3CCOCC3)c(c2)CN[C@H]1CO [Compound 89] |
| > 10 | 2.69 | > 10 | > 10 | > 10 | > 10 | > 10 | 1.41 | 6.17 | O=C1NCCCOc2cccc(c2)-c2ccnc(n2)Nc2ccc(N3CCOCC3)c(c2)CN[C@H]1Cc1ccccc1 [Compound 91] |
| > 10 | 1.32 | 0.832 | 0.891 | 2.51 | > 10 | > 10 | 0.398 | 0.309 | O=C1NCCCOc2ccc(cc2)-c2ccnc(n2)Nc2ccc(N3CCOCC3)c(c2)CN2CCC1CC2 [Compound 92] |
| > 10 | 2.82 | > 10 | > 10 | > 10 | > 10 | > 10 | 0.398 | 5.37 | O=C1NCCCOc2cccc(c2)-c2ccnc(n2)Nc2ccc(N3CCOCC3)c(c2)CN2CCC[C@@H]12 [Compound 96] |
